In patent US20100130737A1, “Regulating Agent of GPR34 Receptor Function” (TAKEDA PHARMACEUTICAL COMPANY LIMITED, priority 2005, published 2010) one finds melting point data, which are given here for 24 molecules.

In general, melting point refers to the temperature, or range, at which the solid turns liquid.

Counter-ions that a name gives are not always drawn.

`N[C@H](Cc1c[nH]c2ccccc12)C(=O)NC1(C(=O)O)Cc2ccc(-c3ccc(Cl)cc3)cc2C1` (stereo partly drawn) (as salt: hydrochloride) [Example B122, 5-(4-Chlorophenyl)-2-(D-tryptophylamino)indan-2-carboxylic acid hydrochloride]: the melting point lay in the range of 168 to 170 °C. In turn, `Cc1nc2ccccc2n1CC(=O)NC1(C(=O)O)Cc2ccc(-c3ccc(Cl)cc3)cc2C1` (stereo not drawn) (as salt: hydrochloride) [Example B159, 5-(4-Chlorophenyl)-2-{[(2-methyl-1H-benzimidazol-1-yl)acetyl]amino}indan-2-carboxylic acid hydrochloride] registered a melting point of 284 to 285 °C. `O=C(Cc1cccnc1)NC1(C(=O)O)Cc2ccc(-c3ccc(Cl)cc3)cc2C1` (stereo not drawn) (as salt: hydrochloride) [Example B175, 5-(4-Chlorophenyl)-2-[(pyridin-3-ylacetyl)amino]indan-2-carboxylic acid hydrochloride]: the melting point came to 288 °C. To `Cc1c(C(=O)NC(Cc2ccc(OCc3ccc(F)cc3)cc2)C(=O)O)oc2cc(-c3ccc(Cl)cc3)ccc12` (racemic) [Example C117, N-{[6-(4-Chlorophenyl)-3-methyl-1-benzofuran-2-yl]carbonyl}-O-(4-fluorobenzyl)-DL-tyrosine] belongs 147 to 149 °C; to `O=C(Cc1ccc(OCc2ccccc2)cc1)Nc1c(C(=O)O)oc2cc(-c3ccc(Cl)cc3)ccc12` [Example A23, 3-({[4-(Benzyloxy)phenyl]acetyl}amino)-6-(4-chlorophenyl)-1-benzofuran-2-carboxylic acid], 211 to 212 °C; to `O=C(Cc1ccc(OCc2ccc(F)cc2)cc1)Nc1c(C(=O)O)oc2cc(-c3ccc(Cl)cc3)ccc12` [Example A24, 6-(4-Chlorophenyl)-3-[({4-[(4-fluorobenzyl)oxy]phenyl}acetyl)amino]-1-benzofuran-2-carboxylic acid], 205 to 206 °C. `O=C(CCc1ccc(OCc2ccccc2)cc1)Nc1c(C(=O)O)oc2cc(-c3ccc(Cl)cc3)ccc12` [Example A25, 3-({3-[4-(Benzyloxy)phenyl]propanoyl}amino)-6-(4-chlorophenyl)-1-benzofuran-2-carboxylic acid]: the melting point is 209 to 210 °C.

The molecule `O=C(CSc1nc2ccccc2s1)NC1(C(=O)O)Cc2ccc(-c3ccc(Cl)cc3)cc2C1` (stereo not drawn) [Example B117, 2-{[(1,3-Benzothiazol-2-ylthio)acetyl]amino}-5-(4-chlorophenyl)indan-2-carboxylic acid] yielded a melting point of 205 to 207 °C. Regarding `CC(C)(C)OC(=O)NCCC(=O)NC1(C(=O)O)Cc2ccc(-c3ccc(Cl)cc3)cc2C1` (stereo not drawn) [Example B118, 2-{[3-(tert-Butoxycarbonylamino)propionyl]amino}-5-(4-chlorophenyl) indan-2-carboxylic acid], the melting point lay in the range of 212 to 214 °C. Next, `CC(C)(C)OC(=O)N[C@H](Cc1c[nH]c2ccccc12)C(=O)NC1(C(=O)O)Cc2ccc(-c3ccc(Cl)cc3)cc2C1` (stereo partly drawn) [Example B119, 2-{[N-(tert-Butoxycarbonyl)-D-tryptophyl]amino}-5-(4-chlorophenyl)indan-2-carboxylic acid]: 158 °C; `CC(C)(C)OC(=O)N[C@@H](Cc1ccccc1)C(=O)NC1(C(=O)O)Cc2ccc(-c3ccc(Cl)cc3)cc2C1` (stereo partly drawn) [Example B120, 2-{[N-(tert-Butoxycarbonyl)phenylalanyl]amino}-5-(4-chlorophenyl)indan-2-carboxylic acid]: 140 to 142 °C. To `O=C(CN1CCN(c2ccccc2)CC1)NC1(C(=O)O)Cc2ccc(-c3ccc(Cl)cc3)cc2C1` (stereo not drawn) [Example B124, 5-(4-Chlorophenyl)-2-{[(4-phenylpiperazine-1-yl)acetyl]amino)indan-2-carboxylic acid] belongs 247 °C; to `O=C(Cc1ccccc1OCc1ccccc1)NC1(C(=O)O)Cc2ccc(-c3ccc(Cl)cc3)cc2C1` (stereo not drawn) [Example B126, 2-({[2-(Benzyloxy)phenyl]acetyl}amino)-5-(4-chlorophenyl)indan-2-carboxylic acid], 245 °C. `O=C(Cc1ccc(Cl)cc1)NC1(C(=O)O)Cc2ccc(-c3ccc(Cl)cc3)cc2C1` (stereo not drawn) [Example B127, 5-(4-Chlorophenyl)-2-{[(4-chlorophenyl)acetyl]amino}indan-2-carboxylic acid] showed a melting point of 251 °C. `O=C(CN1CCN(C(c2ccc(F)cc2)c2ccc(F)cc2)CC1)NC1(C(=O)O)Cc2ccc(-c3ccc(Cl)cc3)cc2C1` (stereo not drawn) [Example B128, 2-[({4-[bis(4-Fluorophenyl)methyl]piperazine-1-yl)acetyl)amino]-5-(4-chlorophenyl)indan-2-carboxylic acid] had a melting point of 184 °C. Molecule `Cc1c(C(=O)NC2(C(=O)O)Cc3ccc(-c4ccc(Cl)cc4)cc3C2)oc2cc(-c3ccc(Cl)cc3)ccc12` (stereo not drawn) [Example B129, 5-(4-Chlorophenyl)-2-({[6-(4-chlorophenyl)-3-methyl-1-benzofuran-2-yl]carbonyl}amino)indan-2-carboxylic acid] showed a melting point of 257 °C. Molecule `O=C(O)C1(NS(=O)(=O)Cc2ccc(F)cc2)Cc2ccc(-c3ccc(Cl)cc3)cc2C1` (stereo not drawn) [Example B130, 5-(4-Chlorophenyl)-2-{[(4-fluorobenzyl)sulfonyl]amino}indan-2-carboxylic acid] registered a melting point of 210 to 213 °C. In the case of `COc1ccc(-c2ccc3c(c2)CC(NC(=O)Cc2ccc(F)cc2)(C(=O)O)C3)cc1` (stereo not drawn) [Example B131, 2-{[(4-Fluorophenyl)acetyl]amino}-5-(4-methoxyphenyl)indan-2-carboxylic acid], the melting point is 227 °C. `O=C(CCc1ccc(F)cc1)NC1(C(=O)O)Cc2ccc(-c3ccc(Cl)cc3)cc2C1` (stereo not drawn) [Example B132, 5-(4-Chlorophenyl)-2-{[3-(4-fluorophenyl)propanoyl]amino}indan-2-carboxylic acid] showed a melting point of 220 °C. The molecule `O=C(NC1(C(=O)O)Cc2ccc(-c3ccc(Cl)cc3)cc2C1)c1ccc(F)cc1` (stereo not drawn) [Example B133, 5-(4-Chlorophenyl)-2-[(4-fluorobenzoyl)amino]indan-2-carboxylic acid] displayed a melting point of 251 °C.

In turn, `CS(=O)(=O)c1ccc(CC(=O)NC2(C(=O)O)Cc3ccc(-c4ccc(Cl)cc4)cc3C2)cc1` (stereo not drawn) [Example B135, 5-(4-Chlorophenyl)-2-({[4-(methylsulfonyl)phenyl]acetyl}amino)indan-2-carboxylic acid] showed a melting point of 216 °C. For `O=C(Cc1ccccc1Cl)NC1(C(=O)O)Cc2ccc(-c3ccc(Cl)cc3)cc2C1` (stereo not drawn) [Example B136, 5-(4-Chlorophenyl)-2-{[(2-chlorophenyl)acetyl]amino}indan-2-carboxylic acid], the melting point was determined as 222 °C.

For `O=C(NC1(C(=O)O)Cc2ccc(-c3ccc(Cl)cc3)cc2C1)c1ccc2ncsc2c1` (stereo not drawn) [Example B137, 2-[(1,3-Benzothiazol-6-ylcarbonyl)amino]-5-(4-chlorophenyl)indan-2-carboxylic acid], the melting point was determined as 210 °C. Next, `O=C(Cc1cccc(Cl)c1)NC1(C(=O)O)Cc2ccc(-c3ccc(Cl)cc3)cc2C1` (stereo not drawn) [Example B138, 5-(4-Chlorophenyl)-2-{[(3-chlorophenyl)acetyl]amino}indan-2-carboxylic acid]: 234 °C.
